The results in this text go back to a melting point compilation (Tetko et al.; mined from patent text by program, amines drawn as free bases though some values may be those of a salt).

The melting point is the temperature, or range, at which the solid turns liquid. `CC(=O)CC(=O)N1c2ccc(C(O)(C(F)(F)F)C(F)(F)F)cc2CC1C` (stereo unspecified): the melting point lay in the range of 118 to 119 °C. `CCOC(=O)C(C)(C)c1ccc(C(O)CCCN2CCC(=C3c4ccccc4CCc4ccccc43)CC2)cc1` (stereo unspecified) had a melting point of 142 to 144 °C.

Regarding `O=C(Nc1ccc(C(F)(F)F)cc1)N1CC2CCc3ccccc3C2=N1` (stereo unspecified), the melting point is 149 to 151 °C. Regarding `O=C1Nc2ccccc2SC1CCCCN1CCN(c2ccc(F)cc2)CC1` (stereo unspecified), the melting point fell in the range of 150 to 151 °C. Turning to `CCOC(=O)C1C(C)C=CC(NC(=O)OC(C)(C)C)C1[N+](=O)[O-]` (stereo unspecified), the melting point fell in the range of 139 to 145 °C. As for `COc1ccccc1C(=O)c1cccc([N+](=O)[O-])c1`, the figure is 94 °C. `CCOc1nn(C(=O)NS(=O)(=O)Nc2c(C)cccc2C(=O)CC)c(=O)n1C` came in with a melting point of 134 °C. As to `Cc1cc(O)c(Oc2ccccc2C#N)cc1-n1cccc1`, the melting point fell in the range of 158 to 160 °C. With `N#CCc1c[nH]c2ccc(CCS(N)(=O)=O)cc12`, the melting point was 109 to 111 °C. Consider `CC(=O)Nc1ccc(Nc2nnc(Cc3ccncc3)c3ccccc23)cc1`, for which the melting point was > 270 °C.

As for `Cc1csc(C)c1NC(=O)CO`, the melting point was 85 to 87 °C. Consider `CCC1Cc2cc3c(cc2C(c2ccc([N+](=O)[O-])cc2)O1)OCO3` (stereo unspecified), for which the melting point is 116 to 118 °C. Then `O=C1c2ccccc2-c2c1c1ccccc1c(=O)n2CCCCCNS(=O)(=O)c1ccccc1`, with 194 to 195 °C; and `O=C(Nc1ccccc1C(F)(F)F)C1CCCCC1`, with 153 to 154 °C. As for `CC(C)Cn1c(CCCCNC(=O)c2ccccc2)nc2c(N)nc3ccccc3c21`, the melting point fell in the range of 95 to 101 °C. As for `ClCCCn1c(Cc2ccccc2)nc2ccccc21`, the figure is 112 °C; as for `Cc1cc(-c2ccc(-c3c(Cc4ccccc4)oc4ccccc34)cc2)cc(C)c1OS(=O)(=O)c1ccc(C(=O)O)c(O)c1`, 165 to 167 °C; as for `CNC(=O)/C(=N/OC)c1ccccc1Oc1cc(C)cc(C)c1`, 90 to 91 °C. `CN1Cn2cc(CO)cc2-c2ccccc21` came in with a melting point of 74 to 76 °C.

With `C[Si](C)(C)C#Cc1c2ccccc2c2ccc3c(C#C[Si](C)(C)C)c4ccccc4c4ccc1c2c34`, the melting point was 286 to 288 °C.

Take `CCOC(=O)NS(=O)(=O)c1c(Cl)c(C)nn1C`: the melting point was in the range of 106 to 109 °C. Regarding `S=C(NCN1CCOCC1)C(c1ccccc1)c1ccccn1` (stereo unspecified), the melting point was 128 to 130 °C. Then `CCCCOC(=O)c1nc(Cl)c2ccc(OC(C)C)cc2c1O`, with 116 to 118 °C. On to `Cc1cccc2c1C1(COc3cc4c(cc31)OCO4)C(=O)N2Cc1ccc(C(F)(F)F)o1` (stereo unspecified), for which the melting point is 117 to 119 °C.

The compound `CC(Br)C(=O)c1cc(C(N)=O)cs1` (stereo unspecified) came in with a melting point of 116 to 117 °C. `CCCCc1ncc(/C=C(\Cc2cccs2)C(=O)O)n1Cc1ccc(C(N)=O)cc1` displayed a melting point of 210 to 212 °C. In the case of `Fc1ccc(Cn2c(NC3CCN(CCNc4nc5cccnc5s4)CC3)nc3ccccc32)cc1`, the melting point was 204 °C. In turn, `CCCCNc1c(C(=O)OCC)c(C)nc(N)c1[N+](=O)[O-]` showed a melting point of 98 to 99 °C. Then `COc1cccc(C=CC(=O)Cl)c1`, with 43 to 45 °C.

On to `Cc1ccc(C#Cc2cc3ccccc3s2)s1`, for which the melting point fell in the range of 85 to 87 °C. Regarding `CC(C)(CO)c1cc(NC(=O)C(C)(C)S(=O)(=O)C2CCOCC2)on1`, the melting point was in the range of 191 to 192 °C. Then `COC(=O)C1(NC(=O)Cc2cc(-c3ccc(F)cc3)ccc2C)CCC(F)(F)CC1`, with 187 °C; and `COc1cc(C=C2OC(C)=CC2=O)cc(OC)c1O`, with 188 to 190 °C.

`NNc1nc(F)c(CC(F)(F)F)cc1Cl` showed a melting point of 104 to 106 °C. Then `O=C1CCC(C(=O)N2CCN(CC(=O)N3CCOCC3)CC2)N1` (stereo unspecified), with 167 to 169 °C; and `Cn1cc(-c2cccc(C(F)(F)F)c2)c(=O)c(-c2cccs2)c1`, with 185 to 186 °C; and `COC1=C(Cl)C(Cl)C(C(=O)C2(C3=CCCCC3)C=CC(OC)=C(Cl)C2Cl)(C2=CCCCC2)C=C1` (stereo unspecified), with 126 to 129 °C. Compound `COc1cc2c(cc1OCc1ccccc1)CCN(Cc1cccc(C)c1)C2` had a melting point of 81 to 82 °C.

For the compound `COCCOC1c2ccn3c(C)c(C)nc3c2NC(c2ccccc2)C1OC(=O)CCCCO[N+](=O)[O-]` (stereo unspecified), the melting point was 87.1 °C.

`COC(c1nccs1)(c1nccs1)C(F)(F)F` yielded a melting point of 40 to 41 °C. As for `CC(=O)c1ccc2nc3n(c2c1)CCC(=O)N3`, the figure is > 320 °C. In turn, `N#CC(=NOS(=O)(=O)c1ccc(C(=O)Cl)cc1)c1ccccc1` registered a melting point of 193 to 195 °C. For the compound `COC(=O)c1c(OCc2ccccc2)ccc2c1CC[C@@H](NC(C)=O)[C@@H]2OC(C)=O` (relative stereo), the melting point lay within 171 to 172 °C.

Turning to `COC(=O)COc1cc(Cl)c(C(=O)CBr)cc1Cl`, the melting point lay in the range of 89 to 90 °C.

The compound `COC(=O)c1cscc1S(=O)(=O)Cl` came in with a melting point of 71 °C. `O=C(O)c1ccc(-n2ncc3ccccc32)cc1` registered a melting point of 171 to 172 °C. With `C=C(C)C(=O)c1cc(O)c(O)c([N+](=O)[O-])c1`, the melting point was 98 to 102 °C.

`CC(C(=O)O)c1ccc(-n2cc(Br)cn2)c(Cl)c1` (stereo unspecified) returned a melting point of 116 to 117 °C. The compound `O=C1CCCCCCCCCCCCCCCCCCCCCCC1O` (stereo unspecified) registered a melting point of 39 to 40 °C. In turn, `CC(Cc1cccc(S(N)(=O)=O)c1)=NO` yielded a melting point of 154 to 157 °C. In the case of `Nc1ccsc1-c1nc(C2CC2)no1`, the melting point fell in the range of 51 to 54 °C. Compound `CCCc1c(OCCCCOc2ccc(Sc3ccccc3CC(=O)O)cc2)ccc(C(C)=O)c1O` registered a melting point of 76 to 78 °C.

Compound `CC(C)(C)OC(=O)[C@@H]1CCC(=S)N1Cc1ccccc1` displayed a melting point of 72 to 78 °C. `CCc1nn(C2CCCC2)c2cc(-c3ccccc3)ccc12` registered a melting point of 72 to 74 °C.

Regarding `NC(=O)c1cc2ccccc2o1`, the melting point is 165 to 166 °C. Consider `O=C1Nc2cc(Cl)ccc2C(=O)C1c1ccncc1` (stereo unspecified), for which the melting point is > 330 °C. In the case of `CCCc1c(OCCSc2nc3ccc(C(=O)O)cc3[nH]2)ccc(C(C)=O)c1O`, the melting point lay in the range of 108 to 110 °C. As for `O=[N+]([O-])c1ccc(F)cc1CBr`, the melting point was in the range of 38 to 41 °C. Then `Cc1cc(Cc2nnc(Nc3ccc(Cl)cc3)c3ccccc23)ccn1`, with 183 to 184 °C; and `CC(=O)Nc1ccc2sc3ccc(Br)cc3c(=O)c2c1`, with 219 to 222 °C; and `CCn1c(=O)ccc2cnc(Nc3cccc(F)c3OC)nc21`, with 92 to 93 °C. For the compound `Cc1ccc(-c2nc(Cl)nc(Cl)n2)c(C)c1`, the melting point fell in the range of 136 to 137 °C.

Take `O=C(c1ccc(Oc2ccccc2)cc1)c1cccc(C(=O)c2ccc(Oc3ccccc3)cc2)c1`: the melting point lay in the range of 117 to 119 °C. For `CC1(C)Oc2ccc(C#N)cc2[C@@H](N2CCCC2=NC#N)[C@@H]1O` (relative stereo), the melting point is 246 to 247 °C. Then `CN(C)c1c(-c2ccccc2)sc2ccccc12`, with 84 to 86 °C; and `COc1ccc(Cc2nc3c(c4c2[nH]c2ccccc24)C(O)CC(C)(C)C3)cc1` (stereo unspecified), with 146 °C. The compound `Oc1ccccc1-c1nc(-c2ccccc2)no1` yielded a melting point of 156 to 158 °C. As for `CC(C)(C)OC(=O)N1CCC(COc2ccc(N3CCCC3)cc2)CC1`, the figure is 141 to 145 °C. `COc1ccc(CCNc2ncnc3c(F)ccc(F)c23)cc1C` came in with a melting point of 162 to 169 °C. As for `CCOP(=O)(OCC)Oc1c(C2CCCCN2CCCCNC(=O)c2ccc(NC(=O)c3ccc(Cl)cc3)cc2)ccc2c1CCCC2` (stereo unspecified), the figure is 200 °C.

Compound `CC(C)(CC(=O)C(=O)Nc1cc2c(cc1Br)C(=O)OC2)c1ccccc1` came in with a melting point of 148 to 150 °C. Compound `O=C(c1ccc(-c2ccc(Cl)cc2)cc1)N1CCCc2cc(C=CCN3CCCCC3)ccc21` had a melting point of 141 to 143 °C. As for `O=C(c1ccc(Cl)cc1)c1cc(Cl)cc2c1OCC2C(=O)O` (stereo unspecified), the figure is 161 to 163 °C. With `CCOC(=O)c1c(-c2ccncc2)[nH]c(-c2ccncc2)c1-c1ccc([N+](=O)[O-])cc1`, the melting point lay in the range of 274 to 276 °C. Then `Cc1ccccc1-c1cc(O)ccc1O`, with 65 to 68 °C; and `CC1(C)CCc2ccc(C(=O)O)cc2CC1`, with 166 to 171 °C; and `Cn1cc(CO)c(=O)c2ccc(C(C)(C)C)cc21`, with 146 to 149 °C. For `Nc1nc(N)nc(-c2ccc(S(=O)(=O)N3CCCCC3)cc2)n1`, the melting point was > 260 °C. Turning to `CCOC(=O)CC(=O)Nc1ccc(S)cc1`, the melting point turned out to be 69 °C. In the case of `Cc1cccc(N)c1[N+](=O)[O-]`, the melting point lay in the range of 105 to 108 °C.

Turning to `COC(=O)c1ccc(C(=O)NC(C)C)cc1S(=O)(=O)NC(C)(C)C`, the melting point is 159 to 160 °C. For `Cn1cccc1-c1nc2c(N[C@H]3[C@@H](C(N)=O)[C@@H]4C=C[C@H]3C4)c(Br)cnc2[nH]1`, the melting point was in the range of 293 to 295 °C. With `CC(=O)c1cc(O)c(C)cc1O`, the melting point lay within 144 to 146 °C.

As to `CCCc1c(OC(=S)N(C)C)ccc2c(C)c(CC(=O)OC)c(=O)oc12`, the melting point was in the range of 172 to 173 °C. As for `Oc1nc(NCc2ccc(F)cc2)nc(Nc2cccc(C(F)(F)F)c2)n1`, the figure is 266 to 268 °C. The compound `Cc1cc(-c2nnc3c4ccccc4c(OCc4cscn4)nn23)no1` displayed a melting point of 227 to 229 °C. Regarding `OCC1C=CC(n2c(Br)nc3cc(Cl)c(Cl)cc32)C1` (stereo unspecified), the melting point fell in the range of 126 to 128 °C. Compound `CN1CCN(CCOc2ccc3nc(C#N)nc(NC4CCCC4)c3c2)CC1` displayed a melting point of 110 to 112 °C. Then `CC(=O)N1CC(=O)c2ccccc21`, with 138 °C; and `COc1cccc([C@H]2O[C@H](CC(=O)N[C@@H](C)C(=O)O)C(=O)N(CC(C)(C)CO)c3ccc(Cl)cc32)c1OC`, with 133 to 135 °C. Consider `CN(C)C=NS(=O)(=O)c1cc2cnc(CO)cc2o1`, for which the melting point is 161 to 163 °C.
